The record followed here is patent US20100009956A1, “NOVEL SUBSTITUTED PYRIMIDINES AS CYSTEINE PROTEASE INHIBITORS” (Glaxo Group Limited , a corporation, priority 2006, published 2010).

Structures can show the parent of a compound that is named as a salt. Where two headings read alike, the source gives them in different places.

One may read the IC50 as the concentration at which inhibition is half-maximal.

One test has as its target Falcipain-2 (Plasmodium falciparum, UniProt Q8I6U4). The experiment in a line: Falcipain-2 enzymatic assay (assay 1). The class given is biochemical. Summed up:
(§1)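 Recombinant parasite enzyme with 30 uM H-D-VLR-AFC in 100 mM sodium acetate pH 5.5, 10 mM DTT, 0.5 mM CHAPS, 1% DMSO, ambient temperature. Endpoint after 60 minutes, quenched with 16.6 uM E-64; AFC fluorescence (ex 405/em 530). IC50 from four-parameter fit, apparent KI assuming competitive inhibition.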

Another test deals with Falcipain-3 (Plasmodium falciparum, UniProt Q8IIL0). The experiment in a line: Falcipain-3 enzymatic assay (assay 1). The class given is biochemical. The essentials:
as §1

The test system of test [1] is Plasmodium falciparum parasite. The experiment in a line: Whole cell assay (assay 2). The class given is cell-based. From the text: Assay 2) Determination of Whole Cell Activity Against the Plasmodium falciparum Parasite
Compounds can be evaluated for whole cell actvity against the Plasmodium falciparum parasite according to the procedure described in Sijwali S. and Rosenthal P. J., (2004) Proceedings of the National Academy of Sciences of the United States of America (PNAS) 101 (13), 4384-4389 (see in particular “Measurement of Parasite Growth rates and Inhibitor Sensitivity” on page 4385); IC50 values can be calculated as described in Singh A. and Rosenthal P. J., (2001) Antimicrobial Agents and Chemotherapy 45(3), 949-951 (see in particular page 950, first column); synchronised parasites can be prepared as described in Divo A. A. et al., (1985) Protozool. 32, 59-64.

The target of a further test is Cathepsin S (Homo sapiens, UniProt P25774). The experiment in a line: Cathepsin S enzymatic assay (assay 1). The class given is biochemical. The note with it: human recombinant enzyme, KQKLR-AMC substrate, pH 6.5. On the procedure: Assay 1) Determination of Falcipain-2, Falcipain-3, Vivapain-2, Cathepsin K Cathepsin S, Cathepsin L, and Cathepsin B Proteolytic Catalytic Activity
Assays for Falcipain-2, Falcipain-3, and Vivapain-2 are carried out with parasitic recombinant enzymes. Cathepsins K, S, L, and B are carried out with human recombinant enzymes. Standard assay conditions for the determination of kinetic constants used a fluorogenic peptide substrate, typically H-D-VLR-AFC (Falcipain-2, Falcipain-3, Vivapain-2), Z-FR-AFC (Cathepsin K, L, B), or KQKLR-AMC (Cathepsin S) and are determined in 100 mM sodium acetate, pH 5.5, containing 10 mM DTT and 0.5 mM CHAPS (Falcipain-2, Falcipain-3, Vivapain-2), and 100 mM sodium acetate, pH 5.5, containing 5 mM L-cysteine, 1 mM CHAPS and 5 mM EDTA (Cathepsin K, L, B), or 50 mM MES, pH 6.5, containing 0.5 mM CHAPS, 10 mM L-CYS, 5 mM EDTA (Cathepsin S). Stock substrate solutions are prepared at 20 mM in DMSO. The activity assays contained 30 uM substrate (Falcipain-2, Falcipain-3, Vivapain-2), 20 uM substrate (Cathepsin K), 25 uM substrate (Cathepsin B), 5 uM substrate (Cathepsin L), and 30 uM substrate (Cathepsin S). All assays contained 1% DMSO. […] All assays are conducted at ambient temperature as end point assays being quenched after 60 minutes with the exception of Cathepsin S at 90 minutes, with 16.6 uM E-64 in 1% DMSO. Product formation (AFC or AMC) is determined from fluorescence (excitation at 405 nm; emission at 530 nm, AFC, or excitation at 360 nm; emission at 460 nm, AMC) monitored with a LJL Aquest (Molecular Devices) fluorescent plate reader. In the case of kinetic reads (used in mechanism of action studies), the reaction is not quenched but is read in the plate reader every 3 minutes for approximately 90 minutes. In addition, the mechanism of action studies for Falcipain-2 utilize Z-LR-AMC as the substrate. Product formation is determined from the fluorescence of AMC, measured with a LJL Acquest (Molecular Devices) fluorescent plate reader (excitation at 360 nm; emission at 460 nm).
Potential inhibitors are evaluated using the quenched read (endpoint) method. Assays are carried out in the presence of variable concentrations of test compound. Reactions are initiated by addition of enzyme and substrate to wells containing inhibitor stamped in 100% DMSO. For endpoint assays, the reaction is quenched with the addition of E64. Dose response data is fit to an IC50 curve with preset fitting tools according to equation 1:
y=a+(b−a)/(1+(10^x/10^c)^d) (1)
where y is the response at a particular inhibitor concentration x, a is the minimum response value, b is the maximum response value, c is the IC50, and d is the slope of the IC50 curve. Assuming the compound is a competitive inhibitor, the apparent KI can be calculated from IC50, as shown in equation 2: […]

In the next test the target is T1, Cathepsin K (Homo sapiens, UniProt P43235).
T1 sequence (P43235 115-329): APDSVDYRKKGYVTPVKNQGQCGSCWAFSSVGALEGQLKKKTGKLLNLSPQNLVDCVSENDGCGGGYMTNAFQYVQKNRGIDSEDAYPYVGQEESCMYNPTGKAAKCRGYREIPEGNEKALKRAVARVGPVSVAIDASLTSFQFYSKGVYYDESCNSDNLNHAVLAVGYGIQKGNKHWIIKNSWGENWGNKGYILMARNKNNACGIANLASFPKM
The experiment in a line: Cathepsin K enzymatic assay (assay 1). The class given is biochemical. The note with it: human recombinant enzyme, Z-FR-AFC substrate, pH 5.5. The essentials: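 Human recombinant cathepsin K was assayed with the fluorogenic substrate Z-FR-AFC at 20 uM in 100 mM sodium acetate, pH 5.5, with 5 mM L-cysteine, 1 mM CHAPS, 5 mM EDTA and 1% DMSO. Enzyme plus substrate was added to wells holding inhibitor in DMSO. After 60 minutes at ambient temperature, 16.6 uM E-64 quenched the reaction. AFC fluorescence (excitation 405 nm, emission 530 nm) was read, and IC50 came from a four-parameter dose-response fit.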

Where [2] appears, read: parasitic recombinant enzyme, H-D-VLR-AFC substrate, pH 5.5, endpoint read, read-out: Falcipain-2 IC50.
[3] abbreviates: parasitic recombinant enzyme, H-D-VLR-AFC substrate, pH 5.5, endpoint read, read-out: Falcipain-3 IC50.

Chain of Cathepsin S (P25774 115-331): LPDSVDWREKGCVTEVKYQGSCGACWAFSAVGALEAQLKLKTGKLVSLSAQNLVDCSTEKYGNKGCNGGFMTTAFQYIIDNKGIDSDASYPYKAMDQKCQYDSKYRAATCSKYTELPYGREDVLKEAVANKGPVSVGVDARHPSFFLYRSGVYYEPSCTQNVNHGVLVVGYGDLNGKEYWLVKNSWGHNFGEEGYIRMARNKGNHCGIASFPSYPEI
Chain of Falcipain-2 (Q8I6U4 244-484): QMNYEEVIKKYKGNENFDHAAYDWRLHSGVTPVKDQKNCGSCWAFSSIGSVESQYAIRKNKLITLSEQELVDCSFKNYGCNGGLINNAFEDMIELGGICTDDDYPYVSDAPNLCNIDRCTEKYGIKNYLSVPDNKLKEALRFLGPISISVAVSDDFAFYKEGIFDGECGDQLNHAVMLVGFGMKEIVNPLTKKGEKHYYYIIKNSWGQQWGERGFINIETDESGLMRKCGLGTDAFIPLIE
Chain of Falcipain-3 (Q8IIL0 243-492): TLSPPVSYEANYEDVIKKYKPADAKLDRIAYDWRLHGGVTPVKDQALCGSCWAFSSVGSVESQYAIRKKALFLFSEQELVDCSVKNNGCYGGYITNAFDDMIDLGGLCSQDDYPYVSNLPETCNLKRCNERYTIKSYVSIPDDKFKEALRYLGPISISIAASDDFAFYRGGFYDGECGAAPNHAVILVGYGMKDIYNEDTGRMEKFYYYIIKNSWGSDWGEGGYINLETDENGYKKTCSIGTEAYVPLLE

Turning to `CN1CCN(c2ncc(C(=O)NN(c3nc(C#N)ncc3Cl)C3CCCC3)s2)CC1` [Example 77, N′-(5-chloro-2-cyano-4-pyrimidinyl)-N′-cyclopentyl-2-(4-methyl-1-piperazinyl)-1,3-thiazole-5-carbohydrazide trifluoroacetate], the values for the IC50 (at Falcipain-2; at Falcipain-3; in test [1] (Plasmodium falciparum)) were less than 1 nM, 15 to 150 nM and 15 to 150 nM, respectively.

As for “N′-(1-acetyl-4-piperidinyl)-N′-(5-bromo-2-cyano-4-pyrimidinyl)-4-[(4-methyl-1-piperazinyl)methyl]benzohydrazide trifluoroacetate [Example 37]”, the IC50 is less than 1 nM on Falcipain-2 (setting [2]), 15 to 150 nM on Falcipain-3 (setting [3]) and 15 to 150 nM in test [1].

Regarding `CC(=O)N1CCC(N(NC(=O)OC(C)(C)C)c2nc(C#N)ncc2Br)CC1` [Example 79, 1,1-dimethylethyl 2-(1-acetyl-4-piperidinyl)-2-(5-bromo-2-cyano-4-pyrimidinyl)hydrazinecarboxylate], the IC50 is less than 1 nM on Falcipain-2, 15 to 150 nM at Falcipain-3 (setting [3]), 15 to 150 nM in test [1] (Plasmodium falciparum) and less than 200 nM on Cathepsin S.

On to `CN1CCN(C2CCN(Cc3ccc(C(=O)NN(c4nc(C#N)ncc4Cl)C4CCOCC4)cc3)CC2)CC1` [Example 34, N′-(5-Chloro-2-cyano-4-pyrimidinyl)-4-{[4-(4-methyl-1-piperazinyl)-1-piperidinyl]methyl}-N′-(tetrahydro-2H-pyran-4-yl)benzohydrazide trifluoroacetate], for which the IC50 on Falcipain-2 is 1 to 2.5 nM; against Falcipain-3 it was 2.5 to 15 nM; in test [1] (Plasmodium falciparum), 15 to 150 nM; at Cathepsin K it was less than 17 nM.

Take `CC(C)N(CCN(C(=O)OC(C)(C)C)C(C)C)Cc1ccc(C(=O)NN(c2nc(C#N)ncc2Cl)C2CCCC2)cc1` [Example 85, 1,1-dimethylethyl{2-[[(4-{[2-(5-chloro-2-cyano-4-pyrimidinyl)-2-cyclopentylhydrazino]carbonyl}phenyl)methyl](1-methylethyl)amino]ethyl}(1-methylethyl)carbamate trifluoroacetate]: the IC50 at Falcipain-2 was less than 1 nM; on Falcipain-3, 2.5 to 15 nM; in test [1] (Plasmodium falciparum) it was 150 to 250 nM; on Cathepsin S, less than 200 nM.

Take `CC(C)(C)N(CCO)Cc1ccc(C(=O)NN(c2nc(C#N)ncc2Cl)C2CCCC2)cc1` [Example 82, N′-(5-chloro-2-cyano-4-pyrimidinyl)-N′-cyclopentyl-4-{[(1,1-dimethylethyl)(2-hydroxyethyl)amino]methyl}benzohydrazide trifluoroacetate]: the IC50 against Falcipain-2 was less than 1 nM; at Falcipain-3, 2.5 to 15 nM; in test [1] (Plasmodium falciparum), 2.5 to 15 nM.

With “N′-(5-chloro-2-cyano-4-pyrimidinyl)-N′-cyclopentyl-4-{[methyl(3-methylbutyl)amino]methyl}benzohydrazide trifluoroacetate [Example 63]”, the IC50 on Falcipain-2 (setting [2]) was less than 1 nM; on Falcipain-3 (setting [3]), 2.5 to 15 nM; in test [1] it was 2.5 to 15 nM.

On to `CN1CCN(Cc2ccc(C(=O)NN(c3nc(C#N)ncc3Br)C3CCCC3)cc2)CC1` [Example 1A, N′-(5-bromo-2-cyano-4-pyrimidinyl)-N′-cyclopentyl-4-[(4-methyl-1-piperazinyl)methyl]benzohydrazide], for which the results for the IC50 (in test [1]; at Cathepsin S) were 2.5 to 15 nM and less than 1000 nM, respectively.

As to `CN(Cc1ccc(C(=O)NN(c2nc(C#N)ncc2Cl)C2CCCC2)cc1)CC1OCCO1` [Example 83, N′-(5-chloro-2-cyano-4-pyrimidinyl)-N′-cyclopentyl-4-{[(1,3-dioxolan-2-ylmethyl)(methyl)amino]methyl}benzohydrazide trifluoroacetate], the IC50 on Falcipain-2 is less than 1 nM; against Falcipain-3 it was 1 to 2.5 nM; in test [1] (Plasmodium falciparum) it was 150 to 250 nM.

Regarding `CN1CCN(C2CCN(Cc3ccc(C(=O)NN(c4nc(C#N)ncc4Br)C4CCOCC4)cc3)CC2)CC1` [Example 29, N′-(5—Bromo-2-cyano-4-pyrimidinyl)-4-{[4-(4-methyl-1-piperazinyl)-1-piperidinyl]methyl}-N′-(tetrahydro-2H-pyran-4-yl)benzohydrazide trifluoroacetate], the IC50 was less than 1 nM against Falcipain-2, 2.5 to 15 nM at Falcipain-3 (setting [3]), 2.5 to 15 nM in test [1] (Plasmodium falciparum) and less than 17 nM at Cathepsin K.

In the case of `CN1CCN(C2CCN(Cc3ccc(C(=O)NN(c4nc(C#N)ncc4Cl)C4CCCCC4)cc3)CC2)CC1` [Example 40, N′-(5-chloro-2-cyano-4-pyrimidinyl)-N′-cyclohexyl-4-{[4-(4-methyl-1-piperazinyl)-1-piperidinyl]methyl}benzohydrazide], the IC50 against Falcipain-2 is less than 1 nM; on Falcipain-3 (setting [3]), 2.5 to 15 nM; on Cathepsin K it was less than 1.5 nM; on Cathepsin S, less than 200 nM.

In the case of `CN(CCN(C)C(=O)OC(C)(C)C)Cc1ccc(C(=O)NN(c2nc(C#N)ncc2Cl)C2CCCC2)cc1` [Example 84, 1,1-dimethylethyl{2-[[(4-{[2-(5-chloro-2-cyano-4-pyrimidinyl)-2-cyclopentylhydrazino]carbonyl}phenyl)methyl](methyl)amino]ethyl}methylcarbamate trifluoroacetate], the IC50 was less than 1 nM at Falcipain-2, 2.5 to 15 nM against Falcipain-3, 150 to 250 nM in test [1] (Plasmodium falciparum) and less than 1000 nM at Cathepsin S.

Consider `CN1CCN(C2CCN(Cc3ccc(C(=O)NN(c4nc(C#N)ncc4Br)C4CCCCC4)cc3)CC2)CC1` [Example 17, N′-(5-bromo-2-cyano-4-pyrimidinyl)-N′-cyclohexyl-4-{[4-(4-methyl-1-piperazinyl)-1-piperidinyl]methyl}benzohydrazide trifluoroacetate], for which the IC50 is less than 1 nM against Falcipain-2, 2.5 to 15 nM against Falcipain-3, less than 1.5 nM at Cathepsin K and less than 1000 nM at Cathepsin S.

Consider `CN1CCN(Cc2ccc(-c3ccc(C(=O)NN(c4nc(C#N)ncc4Br)C4CCCCC4)cn3)cc2)CC1` [Example 44, N′-(5-bromo-2-cyano-4-pyrimidinyl)-N′-cyclohexyl-6-{4-[(4-methyl-1-piperazinyl)methyl]phenyl}-3-pyridinecarbohydrazide trifluoroacetate], for which the IC50 at Falcipain-2 was less than 1 nM; on Falcipain-3 it was 2.5 to 15 nM; on Cathepsin K it was less than 1.5 nM; on Cathepsin S, less than 200 nM.
